Measured values published in patent EP1322622B1, “NEW N, N'-DISUBSTITUTED BENZIMIDAZOLONE DERIVATIVES WITH AFFINITY AT THE SEROTONIN AND DOPAMINE RECEPTORS” (Sprout Pharmaceuticals, Inc., priority 2000, dated 2002).

target: T1, D4 human receptors (Homo sapiens, UniProt P21917); test: D4 Radioligand Receptor Binding Assay ([3H] YM-09151-2, CHO cell membranes); settings: compound at 10^-7 M, singlicate; [3H] YM-09151-2 0.15-0.25 nM; read-out: D4 receptor binding assay % inhib. (10^-7 M)
T1 construct: expressed in transfected cells; host or cells: CHO cells
T1 sequence (P21917 1-419): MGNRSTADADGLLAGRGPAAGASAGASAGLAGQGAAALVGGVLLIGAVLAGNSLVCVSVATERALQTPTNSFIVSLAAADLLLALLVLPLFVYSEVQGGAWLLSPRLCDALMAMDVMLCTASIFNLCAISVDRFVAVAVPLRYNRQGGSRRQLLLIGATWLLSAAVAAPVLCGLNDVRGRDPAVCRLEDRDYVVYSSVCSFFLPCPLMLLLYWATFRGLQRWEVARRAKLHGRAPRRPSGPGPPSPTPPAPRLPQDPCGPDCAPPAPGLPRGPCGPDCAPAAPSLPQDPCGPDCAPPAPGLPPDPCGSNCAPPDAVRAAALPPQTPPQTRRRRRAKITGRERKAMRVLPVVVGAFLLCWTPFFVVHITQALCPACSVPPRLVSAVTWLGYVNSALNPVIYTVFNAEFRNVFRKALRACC
Experimental: Membranes from CHO cells, expressing D4 human receptors were suspended in incubation buffer.
Binding assays were performed in MultiProbe 204 pipetting system (Packard), according to a predetermined mapping, consistent with the software Screen. The compounds were tested in singlicate at one concentration (10^-7 M) in a total volume of 1000 µl (980 µl of diluted membranes, 10 µl DMSO or unlabelled ligand and 10 µl of [^3H] YM-09151-2 (0.15-0.25 nM). After incubation for 120 min at 27 °C, the reaction was stopped by rapid filtration through Tomtec cell Harvester (48 wells) using Filtermat B (presoaked in 0.1% PEI) filters. Filters were washed with ice-cold 50 mM Tris-HCl (pH 7.4) buffer (9 x 700 µl), dryed, covered with MeltiLex B/HS (Wallac) scintillator sheets and heated in oven at 80-90 °C for about 10 min, transferred into plastic sample bags (Wallac), sealed and put into 1024 Beta Plate scintillation counter (Wallac). Non specific binding was determined in the presence of clozapine dissolved in DMSO to a final concentration of 10^-5 M.
(§1) The specific radioligand binding to the receptor was defined by the difference between total binding and non specific binding, determined in the presence of an excess of unlabelled ligand. Results were expressed as percentage of control specific binding obtained in the presence of the compounds.

Row | inhibition at 0.1 µM [%] | Compound
1 | 78 | O=c1n(CC=CCN2CCc3c([nH]c4ccccc34)C2)c2ccccc2n1CCN1CCOCC1 [compound 265]
2 | 38 | COCCn1c(=O)n(CC=CCN2CCN(c3cccc(Cl)c3)CC2)c2ccccc21 [compound 280]
3 | 87 | COCCn1c(=O)n(C/C=C\CN2CCN(c3ccc(Cl)c(Cl)c3)CC2)c2ccccc21 [compound 286]
4 | 32 | COCCn1c(=O)n(C/C=C/CN2CCN(c3ccccc3)CC2)c2ccccc21 [compound 293]
5 | 70 | COCCn1c(=O)n(C/C=C/CN2CCN(c3ccc(Cl)c(Cl)c3)CC2)c2ccccc21 [compound 303]
6 | 60 | O=c1n(C/C=C\CN2CCN(C(c3ccccc3)c3ccc(Cl)cc3)CC2)c2ccccc2n1CCN1CCCCC1 (stereo not shown) [compound 311]
7 | 94 | O=c1n(C/C=C\CN2CCc3c([nH]c4ccccc34)C2)c2ccccc2n1CCN1CCCCC1 [compound 316]
8 | 70 | O=c1n(C/C=C\CN2CC=C(c3ccccc3)CC2)c2ccccc2n1CCN1CCCCC1 [compound 319]
9 | 51 | O=c1n(C/C=C/CN2CCN(c3cccc(Cl)c3)CC2)c2ccccc2n1CCN1CCOCC1 [compound 348]
10 | 46 | O=c1n(C/C=C\CN2CCN(c3ccccc3)CC2)c2ccccc2n1CCO [compound 361]
11 | 36 | O=c1n(C/C=C\CN2CCN(c3ccccn3)CC2)c2ccccc2n1CCO [compound 364]
12 | 90 | O=c1n(C/C=C\CN2CCc3c([nH]c4ccccc34)C2)c2ccccc2n1CCO [compound 367]
13 | 95 | O=c1n(C/C=C\CN2CCN(c3ccc(Cl)c(Cl)c3)CC2)c2ccccc2n1CCO [compound 371]
14 | 35 | O=c1n(C/C=C/CN2CCN(c3ccccc3)CC2)c2ccccc2n1CCO [compound 378]
15 | 32 | CCNC(=O)OCCn1c(=O)n(C/C=C\CN2CCN(c3ccccc3)CC2)c2ccccc21 [compound 395]
16 | 39 | CCNC(=O)OCCn1c(=O)n(C/C=C/CN2CCN(c3ccccc3)CC2)c2ccccc21 [compound 412]
17 | 63 | CS(=O)(=O)NCCn1c(=O)n(C/C=C\CN2CCc3c([nH]c4ccccc34)C2)c2ccccc21 [compound 501]
18 | 58 | CS(=O)(=O)NCCn1c(=O)n(C/C=C\CN2CCN(c3ccc(Cl)c(Cl)c3)CC2)c2ccccc21 [compound 505]
19 | 36 | CS(=O)(=O)NCCn1c(=O)n(C/C=C/CN2CCN(c3ccc(Cl)c(Cl)c3)CC2)c2ccccc21 [compound 527]
20 | 39 | COc1ccccc1N1CCN(C/C=C/Cn2c(=O)n(CCNS(C)(=O)=O)c3ccccc32)CC1 [compound 535]

target: T2, 5-HT1A human receptors (Homo sapiens, UniProt P08908); test: 5-HT1A Radioligand Receptor Binding Assay ([3H]-8-OH-DPAT, CHO cell membranes); settings: compound at 10^-7 M, singlicate; [3H]-8-OH-DPAT 0.6-0.7 nM; read-out: 5-HT1A receptor binding assay % inhib. (10^-7 M)
T2 construct: expressed in transfected cells; host or cells: CHO cells
T2 sequence (P08908 1-422): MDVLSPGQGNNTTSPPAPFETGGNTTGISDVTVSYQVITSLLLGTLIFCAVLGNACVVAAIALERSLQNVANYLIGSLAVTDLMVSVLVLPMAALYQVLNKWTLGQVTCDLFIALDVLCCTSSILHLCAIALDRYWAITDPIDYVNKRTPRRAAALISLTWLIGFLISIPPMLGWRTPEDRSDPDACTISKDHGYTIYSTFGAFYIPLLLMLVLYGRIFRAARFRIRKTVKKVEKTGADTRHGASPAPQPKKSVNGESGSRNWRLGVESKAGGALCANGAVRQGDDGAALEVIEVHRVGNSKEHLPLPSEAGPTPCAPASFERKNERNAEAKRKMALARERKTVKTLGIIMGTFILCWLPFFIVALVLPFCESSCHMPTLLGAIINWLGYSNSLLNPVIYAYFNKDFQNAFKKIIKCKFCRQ
Experimental: Membranes from CHO cells, expressing 5-HT1A human receptors were suspended in incubation buffer.
The compounds were tested in singlicate at one concentration (10^-7 M) in a total volume of 1000 µl. 980 µl of diluted membranes, 10 µl DMSO or unlabelled ligand and 10 µl of [^3H]-8-OH-DPAT (0.6-0.7 nM) were incubated for 60 min at 27 °C. The reaction was stopped by rapid filtration through Tomtec cell Harvester (48 wells) using Filtermat B (presoaked in 0.1% PEI) filters. […] Non specific binding was determined in the presence of 5-HT (10^-5 M).
as §1
The affinity values (IC50) for the compounds were obtained by a non linear least squares regression analysis on the basis of a one binding site model.

Row | inhibition at 0.1 µM [%] | Compound
21 | 55 | O=c1n(CC=CCN2CCc3c([nH]c4ccccc34)C2)c2ccccc2n1CCN1CCOCC1 [compound 265]
22 | 93 | COCCn1c(=O)n(CC=CCN2CCN(c3cccc(Cl)c3)CC2)c2ccccc21 [compound 280]
23 | 65 | COCCn1c(=O)n(C/C=C\CN2CCN(c3ccc(Cl)c(Cl)c3)CC2)c2ccccc21 [compound 286]
24 | 89 | COCCn1c(=O)n(C/C=C/CN2CCN(c3ccccc3)CC2)c2ccccc21 [compound 293]
25 | 71 | COCCn1c(=O)n(C/C=C/CN2CCN(c3ccc(Cl)c(Cl)c3)CC2)c2ccccc21 [compound 303]
26 | 59 | O=c1n(C/C=C\CN2CCN(C(c3ccccc3)c3ccc(Cl)cc3)CC2)c2ccccc2n1CCN1CCCCC1 (stereo not shown) [compound 311]
27 | 72 | O=c1n(C/C=C\CN2CCc3c([nH]c4ccccc34)C2)c2ccccc2n1CCN1CCCCC1 [compound 316]
28 | 94 | O=c1n(C/C=C\CN2CC=C(c3ccccc3)CC2)c2ccccc2n1CCN1CCCCC1 [compound 319]
29 | 99 | O=c1n(C/C=C/CN2CCN(c3cccc(Cl)c3)CC2)c2ccccc2n1CCN1CCOCC1 [compound 348]
30 | 86 | O=c1n(C/C=C\CN2CCN(c3ccccc3)CC2)c2ccccc2n1CCO [compound 361]
31 | 77 | O=c1n(C/C=C\CN2CCN(c3ccccn3)CC2)c2ccccc2n1CCO [compound 364]
32 | 61 | O=c1n(C/C=C\CN2CCc3c([nH]c4ccccc34)C2)c2ccccc2n1CCO [compound 367]
33 | 59 | O=c1n(C/C=C\CN2CCN(c3ccc(Cl)c(Cl)c3)CC2)c2ccccc2n1CCO [compound 371]
34 | 77 | O=c1n(C/C=C/CN2CCN(c3ccccc3)CC2)c2ccccc2n1CCO [compound 378]
35 | 86 | CCNC(=O)OCCn1c(=O)n(C/C=C\CN2CCN(c3ccccc3)CC2)c2ccccc21 [compound 395]
36 | 93 | CCNC(=O)OCCn1c(=O)n(C/C=C/CN2CCN(c3ccccc3)CC2)c2ccccc21 [compound 412]
37 | 70 | CS(=O)(=O)NCCn1c(=O)n(C/C=C\CN2CCc3c([nH]c4ccccc34)C2)c2ccccc21 [compound 501]
38 | 78 | CS(=O)(=O)NCCn1c(=O)n(C/C=C\CN2CCN(c3ccc(Cl)c(Cl)c3)CC2)c2ccccc21 [compound 505]
39 | 73 | CS(=O)(=O)NCCn1c(=O)n(C/C=C/CN2CCN(c3ccc(Cl)c(Cl)c3)CC2)c2ccccc21 [compound 527]
40 | 97 | COc1ccccc1N1CCN(C/C=C/Cn2c(=O)n(CCNS(C)(=O)=O)c3ccccc32)CC1 [compound 535]
